In paper PMC6687188, “Novel lactate dehydrogenase inhibitors with in vivo efficacy against Cryptosporidium parvum” (PLoS Pathogens, 2019):

molecular target: recombinant CpLDH protein (Cryptosporidium parvum, UniProt Q9GT92, F198L/K295E/R251K)

Row | Compound | MEAN CpLDH INHIBITION (%)
1 | CCCCCCC1CC(=O)C1(Cl)Cl (centres unmarked) [NSC666526] | -2.48
2 | COc1cc(/C=C(\C)c2ccc3c(c2)OCO3)cc(OC)c1OC [NSC648422] | -69.44
3 | O=C1Nc2c(Cl)cc(Cl)cc2C1=O [NSC26045] | -41.99
4 | COC(=O)C1(C)CCCC2(C)c3cc(OC)ccc3C(=O)C(Br)C12 (centres unmarked) [NSC169600] | -28.27
5 | O=C1Oc2ccccc2C(=O)/C1=C1\C=C(c2ccccc2)SS1 [NSC293927] | -15.46
6 | CCC[CH2][Pb]([Cl])([CH2]CCC)[CH2]CCC [NSC168597] | -54.94
7 | O=C(CCCN1CCC(C(O)c2ccc(F)cc2)CC1)c1ccc(F)cc1 (centres unmarked) [NSC343513] | -0.97
8 | CCN(CC)c1ccc2cc3ccc(=[N+](CC)CC)cc-3oc2c1.[Cl-] [NSC44690] | -28.19
9 | Clc1ccc(-c2c(C3=NCCCN3)nnn2-c2ccc(Cl)cc2)cc1 [NSC645033] | -3.66
10 | Nc1ccc2nc3ccc(=O)cc-3n(-c3ccccc3)c2c1 [NSC31702] | -41.86
11 | CC[C@@]1(O)C[C@H](O[C@H]2C[C@H](N(C)C)[C@H](O)[C@H](C)O2)c2c(cc3c(c2O)C(=O)c2c(O)ccc(O)c2C3=O)[C@H]1C(=O)OC [NSC267229] | -179.02
12 | Cc1ccc(C)c2c(N=Nc3ccccc3[N+](=O)[O-])c(O)[nH]c12 [NSC118732] | -7.91
13 | [O-][Cl+3]([O-])([O-])[O-].c1ccc(-c2csc3c4ccccc4c4ccccc4[n+]23)cc1 [NSC98904] | -42.18
14 | COc1ccccc1/C=C1\Sc2scc(-c3cccc([N+](=O)[O-])c3)[n+]2C1=O.[Cl-] [NSC657446] | -8.01
15 | C[C@@H]1O[C@@H](O[C@@H]2C=C3CC[C@@H]4[C@H](CC[C@]5(C)[C@@H](c6ccc(=O)oc6)CC[C@]45O)[C@@]3(C)CC2)[C@H](O)[C@H](O)[C@H]1O[C@@H]1O[C@H](CO)[C@@H](O)[C@H](O)[C@H]1O [NSC7525] | -34.67
16 | COc1nc(C(Cl)(Cl)Cl)c(Cl)c(OC)c1Cl [NSC338720] | 0.02
17 | Cc1ccc(N=N/C(=N\NC(=O)c2ccc(C)cc2)c2ccc(N(CCC#N)CCC#N)cc2C)cc1 [NSC703550] | -165.27
18 | C[N+](C)(C)CC1CCCC1=O.[I-] (centres unmarked) [NSC621889] | -0.31
19 | N[C@@H](CSC(c1ccccc1)(c1ccccc1)c1ccccc1)C(=O)O [NSC83265] | -6.04
20 | CCN(CC)CCCC(C)Nc1ccnc(/C=C/c2ccc(Cl)cc2)c1 (centres unmarked) [NSC157389] | -3.33
21 | CCCCS(=N)(=O)CCC(N)C(=O)O (centres unmarked) [NSC326231] | -24.75
22 | O=C1C(CN2CCCCC2)CCCC1CN1CCCCC1 (centres unmarked) [NSC39202] | -37.56
23 | OCc1ccc(-c2ccc(-c3ccc(CO)s3)o2)s1 [NSC652287] | -15.92
24 | COc1cc2cc3c4cc(OC)c(OC)cc4cc[n+]3c(C)c2cc1OC.O=C([O-])CS(=O)(=O)O [NSC154890] | -11.41
25 | Cn1c(=O)[nH]c2nncnc2c1=O [NSC99733] | -38.11

Row | Compound | MEAN CpLDH INHIBITION (%)
26 | O=C(NC1=C(Cl)C(=O)c2ccccc2C1=O)C(=O)C(C(=O)c1ccc2ccccc2c1)C1OC(=O)c2ccccc21 (centres unmarked) [NSC641233] | -51.96
27 | COc1ccc(/C=C/c2cc(O)cc(O[C@@H]3O[C@H](CO)[C@@H](O)[C@H](O)[C@H]3O)c2)cc1O [NSC43321] | -58.94
28 | CC1(C)C(O)OC(O)C1(C)C (centres unmarked) [NSC614928] | -7.87
29 | Nc1nc(N)c(N=Nc2ccccc2)c(=O)[nH]1 [NSC5200] | -51.63
30 | COc1ccc(NC(=O)CC(=O)N2N=C(C)C(N=Nc3ccc(S(=O)(=O)c4ccc(N=NC5C(=O)N(C(=O)CC(=O)Nc6ccc(OC)cc6)N=C5C)cc4)cc3)C2=O)cc1 (centres unmarked) [NSC677392] | -119.10
31 | CC1Oc2cc3c(-c4c(O)cc(O)c5c(O)c6c(cc45)OC(C)C(C)C6=O)c(O)cc(O)c3c(O)c2C(=O)C1C (centres unmarked) [NSC345647] | -176.19
32 | NC(N)=N/N=C(\c1ccc(Cl)cc1)C1CC1 [NSC74420] | -7.03
33 | NC1N=C(c2ccc(Cl)cc2)C2=C(N1)c1ccccc1CC2 (centres unmarked) [NSC682864] | -37.11
34 | NC1(C(=O)O)CCCC1 [NSC1026] | -29.26
35 | O=C(C[n+]1ccc2ccccc2c1)c1ccc2ccc3ccccc3c2c1 [NSC35489] | -39.94
36 | CN(Cc1cnc2nc(N)nc(N)c2n1)c1ccc(C(=O)N[C@@H](CCC(=O)O)C(=O)O)c2ccccc12 [NSC174121] | -134.26
37 | OCCNCCN1CCN(CCCN2c3ccccc3Sc3ccc(C(F)(F)F)cc32)CC1 [NSC169676] | -69.84
38 | COc1cc2c(c(OC)c1OC)-c1c(cc3c(c1OC)OCO3)CC(C)C(C)(O)C2OC(=O)c1ccccc1 (centres unmarked) [NSC330516] | -37.93
39 | CCC[CH2][Sn]([CH2]CCC)([CH2]CCC)[O]c1cc(Cl)c(Cl)cc1Cl [NSC164914] | -26.61
40 | Cn1cnc([N+](=O)[O-])c1Sc1nnnn1-c1ccccc1 [NSC631152] | -45.89
41 | CC1=C(C(=O)NCc2ccccc2)C(c2ccccc2O)C(C(=O)NCc2ccccc2)=C(C)N1 [NSC634928] | -21.25
42 | Cc1c(Cl)cccc1NC(=O)c1cccc([N+](=O)[O-])c1O [NSC328477] | -31.70
43 | CC(C)(C)C1CCC2(CC1)CCN(CCCN1CCOCC1)CC2 [NSC90829] | -2.93
44 | CCOC(=O)C1=C(C)NC(=S)NC1c1ccccc1 (centres unmarked) [NSC643910] | -38.49
45 | COc1ccc2cc(CN3CCC(C4CCN(Cc5ccc6cc(OC)ccc6c5)CC4)CC3)ccc2c1.Cl [NSC683792] | -73.55
46 | O=C(OCC12CC3CC(CC(C3)C1)C2)c1ccc(NCc2cc(O)ccc2O)cc1 [NSC689857] | -0.01
47 | O=c1cc(O)ccn1[C@@H]1O[C@H](CO)[C@@H](O)[C@H]1O [NSC126849] | -22.36
48 | COc1ccc(/C=C2\Cc3ccccc3C2=O)cc1OC [NSC643174] | -15.39
49 | C=C(C)[C@@H]1CC[C@]2(C)CC[C@]3(C)[C@H](CC[C@@H]4[C@@]5(C)CC[C@H](O)C(C)(C)[C@@H]5CC[C@]43C)[C@@H]12 [NSC90487] | -42.73
50 | CC(C)(C)c1ccc(O)c(CN(Cc2cc(C(C)(C)C)ccc2O)C2CCCCC2)c1 [NSC48151] | -66.17

Row | Compound | MEAN CpLDH INHIBITION (%)
51 | c1ccc(-c2cccc(-c3ccccn3)n2)nc1 [NSC3905] | -48.97
52 | COc1ccc(NC2=NCCO2)c2c1CCCC2 [NSC663996] | -51.63
53 | Nc1ncnc2c([C@@H]3O[C@H](CO)[C@@H](O)[C@H]3O)[nH]nc12 [NSC102811] | -35.09
54 | CC(Cc1ccccc1)NC1=NCCO1 (centres unmarked) [NSC664298] | -116.71
55 | O/N=C(/CC(O)(C(F)(F)F)C(F)(F)F)c1cccc(Cl)c1 [NSC664329] | -28.29
56 | c1ccc2c(c1)nnn1c3cnccc3nc21 [NSC128734] | -52.88
57 | COc1cc(CC(=O)c2cc3c(cc2-c2ccccc2)OCO3)cc(OC)c1OC [NSC648419] | -12.60
58 | CN1CCN(CCSC2Cc3cc(Cl)ccc3Sc3ccccc32)CC1 (centres unmarked) [NSC635366] | -12.08
59 | Oc1cc2c3c(c1)c1cc4c(cc1c[n+]3CC2)OCO4.[Cl-] [NSC338259] | -17.29
60 | CC(=O)c1sc2c(c1OC(=O)c1ccc(Cl)cc1Cl)c(=O)n(-c1ccccc1)c(=S)n2-c1ccccc1 [NSC671136] | -17.97
61 | N=N/C(=C\c1c(O)[nH]c2ccccc12)c1ccccc1 [NSC175274] | -25.99
62 | C=CCOC1OC(CO[Si](C)(C)C(C)(C)C)C(OCc2ccccc2)C(OCc2ccccc2)C1OCc1ccccc1 (centres unmarked) [NSC624953] | -142.25
63 | CC(=O)O[C@H]1C[C@H](O[C@H]2[C@@H](O)C[C@H](O[C@H]3[C@@H](O)C[C@H](O[C@H]4CC[C@@]5(C)[C@H](CC[C@@H]6[C@@H]5CC[C@]5(C)[C@@H](C7=CC(=O)OC7)CC[C@]65O)C4)O[C@@H]3C)O[C@@H]2C)O[C@H](C)[C@H]1O[C@@H]1O[C@H](CO)[C@@H](O)[C@H](O)[C@H]1O [NSC7532] | -151.91
64 | C[C@]12CC[C@H](OC(=O)Cc3ccc(N(CCCl)CCCl)cc3)C[C@@H]1CC[C@@H]1[C@@H]2CC[C@]2(C)NC(=O)CC[C@@H]12 [NSC290205] | -205.36
65 | Cc1c2ccc3ccccc3c2c[n+]2ccccc12.[Cl-] [NSC28002] | -26.04
66 | CCN(CC)CCOc1ccccc1/C=C/c1noc2ccccc12.Cl [NSC601101] | -6.25
67 | [O-][n+]1ccccc1[S-].[O-][n+]1ccccc1[S-].[Zn+2] [NSC68093] | -17.03
68 | CO[C@H]1C[C@H](O[C@H]2CC[C@]3(C=O)[C@H]4CC[C@]5(C)[C@@H](C6=CC(=O)OC6)CC[C@]5(O)[C@@H]4CC[C@]3(O)C2)O[C@H](C)[C@H]1O[C@@H]1O[C@H](CO[C@@H]2O[C@H](CO)[C@@H](O)[C@H](O)[C@H]2O)[C@@H](O)[C@H](O)[C@H]1O [NSC7530] | -3.24
69 | CC(C)(C)NCCC(O)c1cc(C(F)(F)F)nc2c(C(F)(F)F)cccc12.O=P(O)(O)O (centres unmarked) [NSC305819] | -15.30
70 | CC(=O)OCCN1c2ccccc2Sc2cnccc21 [NSC168221] | -24.94
71 | Cl.Nc1nc(N)c2ncn(-c3ccccc3)c2n1 [NSC29603] | -54.90
72 | CC[C@@]1(O)C[C@H](O)c2c(O)c3c(c(O)c2[C@H]1C(=O)OC)C(=O)c1cccc(O)c1C3=O [NSC196524] | -30.88
73 | CC(C)C1=C(O)C2=C(C(=O)C1=O)[C@@]1(C)CCCC(C)(C)[C@@H]1C[C@H]2O [NSC294577] | -16.31
74 | N#CC(NCc1cccc(CNC(C#N)c2ccccc2)c1)c1ccccc1 (centres unmarked) [NSC681730] | -12.34
